Measurements taken from the supplement of paper PMC10307832.

Each cell line was assayed with O=c1ncccn1[C@@H]1O[C@H](CO)[C@@H](O)[C@H]1O [Zebularine] + CS(=O)(=O)CCNCc1ccc(-c2ccc3ncnc(Nc4ccc(OCc5cccc(F)c5)c(Cl)c4)c3c2)o1 [Lapatinib] (partner 2 µM) (assay: relative viability (nuclei count vs DMSO), 5 days (fraction); higher = more cells survive). Conditions: first compound 1 µM.
In short: (§1)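 Lung cancer cell lines in 1536-well plates were dosed by pin tool the day after seeding, either with one drug alone or with a fixed anchor-drug dose plus five library-drug doses (not always all listed) in √10 steps. After 5 days, cells were fixed and their nuclei stained in one step (final 0.05% Triton X-100, 1% formaldehyde, 1 ug/ml Hoechst), then counted on 4× images. Relative viability is the nuclei count in treated wells divided by that in vehicle wells. Values are medians of duplicate plates.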

First: NCI-H2085
Second: Calu-6
The relative viability of the first is lower: 0.833 for the first, 1.17 for the second.

First: HCC-366
Second: NCI-H1666
The relative viability of the first is higher: 1.22 for the first, 0.561 for the second.

Compared with NCI-H596, LK-2 is lower in relative viability: 1.19 for the first, 0.947 for the second.

Going from NCI-H2087 to SK-MES-1, the relative viability falls from 1.16 to 0.484.

Compared with H3255, COR-L23 is higher in relative viability: 0.249 for the first, 1.1 for the second.

Going from COR-L 105 to IA-LM, the relative viability rises from 0.388 to 0.908.

First: LOU-NH91
Second: NCI-H2170
The relative viability of the first is higher: 0.715 for the first, 0.302 for the second.

Going from NCI-H2405 to HOP-62, the relative viability rises from 1.06 to 1.07.

Going from HCC-44 to A549, the relative viability rises from 1.07 to 1.16.

Compared with LU99A, BEN is lower in relative viability: 1.14 for the first, 0.661 for the second.

Compared with HARA, HCC-78 is higher in relative viability: 0.731 for the first, 1.1 for the second.

Compared with NCI-H322M, LCLC-97TM1 is higher in relative viability: 0.608 for the first, 0.784 for the second.

Going from NCI-H2009 to A-427, the relative viability rises from 0.941 to 1.13.

Going from NCI-H661 to NCI-H1734, the relative viability rises from 0.443 to 1.05.

First: NCI-H460
Second: NCI-H2347
The relative viability of the first is lower: 1.05 for the first, 1.07 for the second.

First: SK-LU-1
Second: NCI-H1395
The relative viability of the first is lower: 0.896 for the first, 1.27 for the second.

Same assay, conditions: first compound 3.162 µM

Going from NCI-H2085 to Calu-6, the relative viability rises from 0.747 to 0.99.

First: HCC-366
Second: NCI-H1666
The relative viability of the first is higher: 0.984 for the first, 0.57 for the second.

Compared with NCI-H596, LK-2 is lower in relative viability: 1.11 for the first, 1.04 for the second.

Going from NCI-H2087 to SK-MES-1, the relative viability falls from 0.662 to 0.435.

Compared with H3255, COR-L23 is higher in relative viability: 0.239 for the first, 0.924 for the second.

Compared with COR-L 105, IA-LM is higher in relative viability: 0.367 for the first, 1.07 for the second.

First: LOU-NH91
Second: NCI-H2170
The relative viability of the first is higher: 0.731 for the first, 0.263 for the second.

First: NCI-H2405
Second: HOP-62
The relative viability of the first is higher: 0.946 for the first, 0.783 for the second.

Compared with HCC-44, A549 is lower in relative viability: 1.07 for the first, 0.941 for the second.

First: LU99A
Second: BEN
The relative viability of the first is higher: 0.838 for the first, 0.491 for the second.

Going from HARA to HCC-78, the relative viability falls from 0.906 to 0.43.

Compared with NCI-H322M, LCLC-97TM1 is higher in relative viability: 0.589 for the first, 0.665 for the second.

Compared with NCI-H2009, A-427 is higher in relative viability: 0.755 for the first, 1.01 for the second.

First: NCI-H661
Second: NCI-H1734
The relative viability of the first is lower: 0.463 for the first, 1.01 for the second.

Compared with NCI-H460, NCI-H2347 is lower in relative viability: 0.897 for the first, 0.783 for the second.

Compared with SK-LU-1, NCI-H1395 is higher in relative viability: 0.9 for the first, 1.04 for the second.

Same assay, conditions: first compound 10 µM

First: NCI-H2085
Second: Calu-6
The relative viability of the first is higher: 0.647 for the first, 0.604 for the second.

First: HCC-366
Second: NCI-H1666
The relative viability of the first is lower: 0.329 for the first, 0.49 for the second.

First: NCI-H596
Second: LK-2
The relative viability of the first is higher: 0.759 for the first, 0.584 for the second.

First: NCI-H2087
Second: SK-MES-1
The relative viability of the first is higher: 0.615 for the first, 0.397 for the second.

Going from H3255 to COR-L23, the relative viability rises from 0.221 to 0.5.

Going from COR-L 105 to LOU-NH91, the relative viability rises from 0.362 to 0.712.

Compared with NCI-H2170, NCI-H2405 is higher in relative viability: 0.251 for the first, 0.906 for the second.

First: HOP-62
Second: HCC-44
The relative viability of the first is lower: 0.467 for the first, 0.566 for the second.

First: A549
Second: LU99A
The relative viability of the first is lower: 0.438 for the first, 0.615 for the second.

Compared with BEN, HCC-78 is higher in relative viability: 0.347 for the first, 0.871 for the second.

Going from NCI-H322M to LCLC-97TM1, the relative viability falls from 0.586 to 0.451.

Going from NCI-H2009 to A-427, the relative viability falls from 0.753 to 0.691.

Going from NCI-H661 to NCI-H1734, the relative viability falls from 0.461 to 0.452.

First: NCI-H460
Second: NCI-H2347
The relative viability of the first is lower: 0.255 for the first, 0.816 for the second.

First: SK-LU-1
Second: NCI-H1395
The relative viability of the first is lower: 0.545 for the first, 0.799 for the second.

Same assay, conditions: first compound 31.62 µM

First: NCI-H2085
Second: Calu-6
The relative viability of the first is lower: 0.773 for the first, 0.813 for the second.

First: HCC-366
Second: NCI-H1666
The relative viability of the first is higher: 0.749 for the first, 0.667 for the second.

First: NCI-H596
Second: LK-2
The relative viability of the first is higher: 1.18 for the first, 0.539 for the second.

Compared with NCI-H2087, SK-MES-1 is lower in relative viability: 0.924 for the first, 0.427 for the second.

First: H3255
Second: COR-L23
The relative viability of the first is lower: 0.235 for the first, 0.383 for the second.

Compared with COR-L 105, IA-LM is higher in relative viability: 0.361 for the first, 0.773 for the second.

First: LOU-NH91
Second: NCI-H2170
The relative viability of the first is higher: 0.705 for the first, 0.26 for the second.

Compared with NCI-H2405, HOP-62 is lower in relative viability: 0.963 for the first, 0.368 for the second.

First: HCC-44
Second: A549
The relative viability of the first is higher: 0.951 for the first, 0.698 for the second.

First: LU99A
Second: BEN
The relative viability of the first is higher: 0.421 for the first, 0.311 for the second.

First: HARA
Second: HCC-78
The relative viability of the first is higher: 0.896 for the first, 0.729 for the second.

Going from NCI-H322M to LCLC-97TM1, the relative viability falls from 0.601 to 0.376.

First: NCI-H2009
Second: A-427
The relative viability of the first is higher: 0.757 for the first, 0.58 for the second.

Going from NCI-H661 to NCI-H1734, the relative viability rises from 0.436 to 0.5.

Going from NCI-H460 to NCI-H2347, the relative viability rises from 0.294 to 0.628.

Compared with SK-LU-1, NCI-H1395 is higher in relative viability: 0.676 for the first, 0.702 for the second.

Same assay, conditions: first compound 100 µM

First: NCI-H2085
Second: Calu-6
The relative viability of the first is higher: 0.633 for the first, 0.347 for the second.

Going from HCC-366 to NCI-H1666, the relative viability rises from 0.0986 to 0.593.

First: NCI-H596
Second: LK-2
The relative viability of the first is higher: 1 for the first, 0.283 for the second.

First: NCI-H2087
Second: SK-MES-1
The relative viability of the first is higher: 0.275 for the first, 0.269 for the second.

Compared with H3255, COR-L23 is higher in relative viability: 0.228 for the first, 0.232 for the second.

Going from COR-L 105 to IA-LM, the relative viability rises from 0.364 to 0.599.

Going from LOU-NH91 to NCI-H2170, the relative viability falls from 0.606 to 0.266.

Going from NCI-H2405 to HOP-62, the relative viability falls from 0.76 to 0.144.

First: HCC-44
Second: A549
The relative viability of the first is higher: 0.454 for the first, 0.2 for the second.

First: LU99A
Second: BEN
The relative viability of the first is lower: 0.176 for the first, 0.22 for the second.

Compared with HARA, HCC-78 is lower in relative viability: 1.02 for the first, 0.181 for the second.

Going from NCI-H322M to LCLC-97TM1, the relative viability falls from 0.576 to 0.139.

Going from NCI-H2009 to A-427, the relative viability falls from 0.359 to 0.256.

First: NCI-H661
Second: NCI-H1734
The relative viability of the first is higher: 0.583 for the first, 0.493 for the second.

First: NCI-H460
Second: NCI-H2347
The relative viability of the first is lower: 0.0468 for the first, 0.45 for the second.

Going from SK-LU-1 to NCI-H1395, the relative viability rises from 0.448 to 0.507.

The cell lines below were run with CC(C)CCN1c2nc(Nc3cc(F)c(O)c(F)c3)ncc2N(C)C(=O)C1C [BI-D1870] + CS(=O)(=O)N1CCN(Cc2cc3nc(-c4cccc5[nH]ncc45)nc(N4CCOCC4)c3s2)CC1 [Pictilisib] (partner 1 µM) in the same assay as above. Conditions: first compound 0.04 µM.
In short: as §1

For NCI-H2085, the relative viability was 0.439.
